Test results published in patent publication US12568971B2, “Degradative method” (Catexel Technologies Limited, priority 2020, dated 2026).

Columns and labels:
[1] = Dynamic viscosity of alginate solution after treatment (alginate depolymerisation), Brookfield cone/plate viscometer
Protocol: The bottle was placed in a warm water bath (50° C.) for 60 minutes before being removed and cooled in an ice bath. Finally, the dynamic viscosity was determined using a Brookfield viscosity meter as outlined below. Note 1: A 2 mM solution of [[…])2 (see description of stock 12 above) was mixed with equivalent volume of the 2 mM ascorbic acid stock solution (stock solution 7). Upon contact with the ascorbic acid, the catalyst turned from orange/red to red/purple. Note 2: 0.5 mL of both Me3-TACN ligand (stock solution 10) and MnSO4·H2O (stock solution 8) were mixed, stirred and used as a source of catalyst to be placed in the alginate solution. The dynamic viscosity of the samples was measured using a Brookfield HBDV-II cone/plate viscosity meter equipped with a spindle CPE-40. The viscometer was linked to a water bath to maintain the temperature at 25° C. The apparatus was controlled via computer (external mode) using the Rheocalc software. Initially, the viscometer was zeroed without spindle. Then, the spindle CPE-40 was installed and the gap between the bottom of the cone and the top of the cup was set according to the recommendations given by Brookfield. 0.5 mL of the treated alginate solution was placed in the cup of the viscometer using a disposable plastic syringe before the apparatus was closed and the test program launched. […] Results.

[2] = as above; remark: listed apart in the source

CC(=O)[O-].CC(=O)[O-].CN1CCN(C)CCN(C)CC1.CN1CCN(C)CCN(C)CC1.[Mn+4].[Mn+4].[O-2].[O-2].[O-2] [[Mn2(μ-O)3(Me3-TACN)2]^2+, [Mn^IVMn^IV(μ-O)3(1,4,7-trimethyl-1,4,7-triazacyclononane)2][CH3COO]2]
Dynamic Viscosity ([1]; 2.5 μM, pH 8.0, 20 mM H2O2, 4.7 mM NaHCO3, 1 h at 50° C.): 85.0 mPa.s | Dynamic Viscosity ([1]; 2.5 μM, pH 8.5, 20 mM H2O2, 4.7 mM NaHCO3, 1 h at 50° C.): 72.2 mPa.s | Dynamic Viscosity ([1]; 2.5 μM, pH 9.0, 20 mM H2O2, 4.7 mM NaHCO3, 1 h at 50° C.): 55.7 mPa.s | Dynamic Viscosity ([1]; 2.5 μM, pH 9.0, 20 mM H2O2, 1 h at 50° C.): 99.7 mPa · s | Dynamic Viscosity ([1]; 2.5 μM, pH 9.5, 20 mM H2O2, 4.7 mM NaHCO3, 1 h at 50° C.): 59.5 mPa.s | Dynamic Viscosity ([1]; 2.5 μM, pH 9.5, 20 mM H2O2, 1 h at 50° C.): 76.8 mPa · s | Dynamic Viscosity ([1]; 2.5 μM, pH 10.0, 20 mM H2O2, 4.7 mM NaHCO3, 1 h at 50° C.): 81.2 mPa.s | Dynamic Viscosity ([1]; 2.5 μM, pH 10.0, 20 mM H2O2, 1 h at 50° C.): 60.6 mPa · s | Dynamic Viscosity ([1]; 2.5 μM, pH 10.5, 20 mM H2O2, 4.7 mM NaHCO3, 1 h at 50° C.): 67.5 mPa.s | Dynamic Viscosity ([1]; 2.5 μM, pH 10.5, 20 mM H2O2, 1 h at 50° C.): 56.6 mPa · s | Dynamic Viscosity ([1]; 2.5 μM, pH 11.0, 20 mM H2O2, 1 h at 50° C.): 64.8 mPa · s | Dynamic Viscosity ([1]; 5 μM, 20 mM ^tBuOOH, 0.25 g/L sodium tetraborate decahydrate pH 9, 60 min at 50° C.): 52.3 mPa · s | Dynamic Viscosity ([1]; 5 μM, pH 8.0, 20 mM H2O2, 4.7 mM NaHCO3, 1 h at 50° C.): 50.9 mPa.s | Dynamic Viscosity ([1]; 5 μM, pH 8.5, 20 mM H2O2, 4.7 mM NaHCO3, 1 h at 50° C.): 38.6 mPa.s | Dynamic Viscosity ([1]; 5 μM, pH 9, 10 mM H2O2, 4.7 mM NaHCO3, 60 min at 50° C.): 21.6 mPa · s | Dynamic Viscosity ([1]; 5 μM, pH 9.0, 20 mM H2O2, 4.7 mM NaHCO3, 1 h at 50° C.): 24.1 mPa.s | Dynamic Viscosity ([1]; 5 μM, pH 9.0, 20 mM H2O2, 1 h at 50° C.): 78.1 mPa · s | Dynamic Viscosity ([1]; 5 μM, pH 9.5, 20 mM H2O2, 4.7 mM NaHCO3, 1 h at 50° C.): 28.0 mPa.s | Dynamic Viscosity ([1]; 5 μM, pH 9.5, 20 mM H2O2, 1 h at 50° C.): 41.3 mPa · s | Dynamic Viscosity ([1]; 5 μM, pH 10, 10 mM H2O2, 4.7 mM NaHCO3, 60 min at 50° C.): 40.6 mPa · s | Dynamic Viscosity ([1]; 5 μM, pH 10.0, 20 mM H2O2, 4.7 mM NaHCO3, 1 h at 40° C.): 54.2 mPa · s | Dynamic Viscosity ([1]; 5 μM, pH 10.0, 20 mM H2O2, 4.7 mM NaHCO3, 1 h at 50° C.): 61.0 mPa.s | Dynamic Viscosity ([1]; 5 μM, pH 10.0, 20 mM H2O2, 1 h at 50° C.): 27.2 mPa · s | Dynamic Viscosity ([1]; 5 μM, pH 10.5, 20 mM H2O2, 4.7 mM NaHCO3, 1 h at 50° C.): 57.0 mPa.s | Dynamic Viscosity ([1]; 5 μM, pH 10.5, 20 mM H2O2, 1 h at 50° C.): 25.6 mPa · s | Dynamic Viscosity ([1]; 5 μM, pH 11, 10 mM H2O2, 4.7 mM NaHCO3, 60 min at 50° C.): 62.1 mPa · s | Dynamic Viscosity ([1]; 5 μM, pH 11.0, 20 mM H2O2, 1 h at 50° C.): 40.4 mPa · s | Dynamic Viscosity ([1]; 10 μM +1 molar equivalent ascorbic acid, pH 9.0, 0 mM Dequest 2047, 20 mM H2O2, 4.7 mM NaHCO3, 60 minutes at room temperature): 7.9 mPa · s | Dynamic Viscosity ([1]; 10 μM +1 molar equivalent ascorbic acid, pH 9.0, 20 mM H2O2, 4.7 mM NaHCO3, 60 minutes at 40° C.): 7.4 mPa.s | Dynamic Viscosity ([1]; 10 μM, no ascorbic acid, pH 9.5, 0 mM Dequest 2047, 20 mM H2O2, 4.7 mM NaHCO3, 60 minutes at room temperature): 19.3 mPa · s | Dynamic Viscosity ([1]; 10 μM, no ascorbic acid, pH 10.5, 1.0 mM Dequest 2047, 20 mM H2O2, 4.7 mM NaHCO3, 60 minutes at room temperature): 42.6 mPa · s | Dynamic Viscosity ([1]; 10 μM, 1.5 mM PAA + 1.5 mM H2O2, 0.185M Tris buffer, pH 8.5, 60 min at 30° C.): 85.3 mPa · s | Dynamic Viscosity ([1]; 10 μM, 3 mM H2O2, 0.185M Tris buffer, pH 8.5, 60 min at 30° C.): 49.4 mPa · s | Dynamic Viscosity ([1]; 10 μM, pH 8.0, 20 mM H2O2, 4.7 mM NaHCO3, 1 h at 40° C.): 24.2 mPa · s | Dynamic Viscosity ([1]; 10 μM, pH 8.0, 20 mM H2O2, 4.7 mM NaHCO3, 1 h at 50° C.): 26.3 mPa.s | Dynamic Viscosity ([1]; 10 μM, pH 8.5, 20 mM H2O2, 4.7 mM NaHCO3, 1 h at 50° C.): 16.1 mPa.s | Dynamic Viscosity ([1]; 10 μM, pH 9.0, 20 mM H2O2, 4.7 mM NaHCO3, 1 h at 40° C.): 9.1 mPa · s | Dynamic Viscosity ([1]; 10 μM, pH 9.0, 20 mM H2O2, 4.7 mM NaHCO3, 1 h at 50° C.): 9.4 mPa.s | Dynamic Viscosity ([1]; 10 μM, pH 9.0, 20 mM H2O2, 1 h at 50° C.): 47.9 mPa · s | Dynamic Viscosity ([1]; 10 μM, pH 9.5, 20 mM H2O2, 4.7 mM NaHCO3, 1 h at 40° C.): 10.5 mPa · s | Dynamic Viscosity ([1]; 10 μM, pH 9.5, 20 mM H2O2, 4.7 mM NaHCO3, 1 h at 50° C.): 12.8 mPa.s | Dynamic Viscosity ([1]; 10 μM, pH 9.5, 20 mM H2O2, 1 h at 50° C.): 16.2 mPa · s | Dynamic Viscosity ([1]; 10 μM, pH 10.0, 20 mM H2O2, 4.7 mM NaHCO3, 1 h at 50° C.): 38.1 mPa.s | Dynamic Viscosity ([1]; 10 μM, pH 10.0, 20 mM H2O2, 1 h at 50° C.): 11.9 mPa · s | Dynamic Viscosity ([1]; 10 μM, pH 10.5, 20 mM H2O2, 4.7 mM NaHCO3, 1 h at 50° C.): 49.4 mPa.s | Dynamic Viscosity ([1]; 10 μM, pH 10.5, 20 mM H2O2, 1 h at 50° C.): 11.1 mPa · s | Dynamic Viscosity ([1]; 10 μM, pH 11.0, 20 mM H2O2, 1 h at 50° C.): 37.4 mPa · s | Dynamic Viscosity ([1]; Entry 4: 2.5 μM catalyst, 2.5 μM ascorbic acid, 2.5 μM Me3TACN ligand, 20 mM H2O2, 4.7 mM NaHCO3, pH 10, 60 min at 50° C.): 72.5 mPa · s | Dynamic Viscosity ([1]; Entry 5: 2.5 μM catalyst, 2.5 μM ascorbic acid, 5 μM Me3TACN ligand, 20 mM H2O2, 4.7 mM NaHCO3, pH 10, 60 min at 50° C.): 69.3 mPa · s | Dynamic Viscosity ([1]; Entry 6: 2.5 μM catalyst, 2.5 μM ascorbic acid, 10 μM Me3TACN ligand, 20 mM H2O2, 4.7 mM NaHCO3, pH 10, 60 min at 50° C.): 61.7 mPa · s | Dynamic Viscosity ([1]; Entry 7: 2.5 μM catalyst, no ascorbic acid, no added ligand, 20 mM H2O2, 4.7 mM NaHCO3, pH 10, 60 min at 50° C.): 78.1 mPa · s | Dynamic Viscosity ([1]; Entry 8: 2.5 μM catalyst, 2.5 μM Me3TACN ligand, 20 mM H2O2, 4.7 mM NaHCO3, pH 10, 60 min at 50° C.): 73.3 mPa · s | Dynamic Viscosity ([1]; Entry 9: 2.5 μM catalyst, 5 μM Me3TACN ligand, 20 mM H2O2, 4.7 mM NaHCO3, pH 10, 60 min at 50° C.): 66.6 mPa · s | Dynamic Viscosity ([1]; Entry 10: 2.5 μM catalyst, 10 μM Me3TACN ligand, 20 mM H2O2, 4.7 mM NaHCO3, pH 10, 60 min at 50° C.): 56.8 mPa · s | Dynamic Viscosity ([1]; Entry 11: 5 μM catalyst, no added ligand, 20 mM H2O2, 4.7 mM NaHCO3, pH 10, 60 min at 50° C.): 61.0 mPa · s | Dynamic Viscosity ([1]; Entry 12: 5 μM catalyst, 5 μM Me3TACN ligand, 20 mM H2O2, 4.7 mM NaHCO3, pH 10, 60 min at 50° C.): 54.0 mPa · s | Dynamic Viscosity ([1]; Entry 13: 5 μM catalyst, 10 μM Me3TACN ligand, 20 mM H2O2, 4.7 mM NaHCO3, pH 10, 60 min at 50° C.): 47.7 mPa · s | Dynamic Viscosity ([1]; Entry 14: 5 μM catalyst, 20 μM Me3TACN ligand, 20 mM H2O2, 4.7 mM NaHCO3, pH 10, 60 min at 50° C.): 38.1 mPa · s | Dynamic Viscosity ([2]; 5 μM, pH 9.0, 20 mM H2O2, 4.7 mM NaHCO3, 1 h at 40° C.): 17.9 mPa · s | Dynamic Viscosity ([2]; 10 μM, 3 mM PAA, 0.185M Tris buffer, pH 8.5, 60 min at 30° C.): 94.8 mPa · s | Dynamic Viscosity ([2]; 10 μM, pH 10.5, 20 mM H2O2, 4.7 mM NaHCO3, 1 h at 40° C.): 65.5 mPa · s
